Measured values reported in patent US20090163540A1, “Quinine Sulfate Polymorphs, Processes of Preparing, Compositions and Uses Thereof” (priority 2007, published 2009).
Counter-ions that a name gives are not always drawn.

How the values were obtained:
[1] = Variable-temperature XRPD (solid form on heating); format: physicochemical
Procedure: In addition to XRPD, quinine sulfate polymorph A is analyzed by DSC, TGA, moisture balance (MB), post-MB XRPD, hotstage microscopy (HSM), Karl Fischer (KF) and variable temperature X-ray powder diffraction (VT-XRPD); a summary of the analyses is provided in Table 11b. Variable-temperature XRPD is performed on a Shimadzu XRD-6000 X-ray powder diffractometer equipped with an Anton Paar HTK 1200 high temperature stage. The sample is packed in a ceramic holder and analyzed from 2.5 to 40 °2θ at 3°/min (0.4 sec/0.02° step). A silicon standard is analyzed to check the instrument alignment. Temperature calibration is performed using vanillin and sulfapyridine standards. Data are collected and analyzed using XRD-6000 v. 4.1.

[2] = Moisture balance (moisture sorption/desorption, 5% to 95% RH) with post-MB XRPD; format: physicochemical
Procedure: In addition to XRPD, quinine sulfate polymorph A is analyzed by DSC, TGA, moisture balance (MB), post-MB XRPD, hotstage microscopy (HSM), Karl Fischer (KF) and variable temperature X-ray powder diffraction (VT-XRPD); a summary of the analyses is provided in Table 11b. Moisture sorption/desorption data are collected on a VTI SGA-100 Vapor Sorption Analyzer. Sorption and desorption data are collected over a range of 5% to 95% relative humidity (RH) at 10% RH intervals. Samples are not dried prior to analysis. Equilibrium criteria used for analysis are less than 0.0100% weight change in 5 minutes, with a maximum equilibration time of 3 hours if the weight criterion is not met. Data are not corrected for the initial moisture content of the samples. Sodium chloride and polyvinylpyrrolidone are used as calibration standards.

- VT-XRPD form ([1]; 40° C. (listed after 110° C.)): 40° C.: Form A
- VT-XRPD form ([1]; 50° C.): 50° C.: Form A
- VT-XRPD form ([1]; 75° C.): 75° C.: Form A
- VT-XRPD form ([1]; 110° C.): 110° C.: Pattern D
- VT-XRPD form ([1]; ambient temp): ambient temp: Form A
- post-MB XRPD form ([2]; solid form after moisture balance): Form A
- MB (moisture balance) result ([2]; sorption/desorption 5% to 95% RH at 10% RH intervals): non-hygroscopic
SMILES: C=C[C@H]1C[N@@]2CC[C@H]1C[C@H]2[C@H](O)c1ccnc2ccc(OC)cc12 [Form A, quinine sulfate]
